One assay relates to bacterial contamination. As to the kind of experiment: Bacterial contamination after 7 days. Format: cell-based. To be noted: for CFU (bacterial contamination after 7 days): below 10 hardly or not contaminated, above 1,000 heavily contaminated, additions per litre of base solution (BZC 30 ppm, GOX 100 SRU); for effect on bacterial contamination (in words): summary of the table. As for the experimental part: was placed in a vase with 1 litre of solution. The solution was either tap water or an aqueous base solution containing 10 g/1 of a composition containing 94.66% glucose, 5% citric acid, 0.34% conventional biocides. […] The vases with flowers were placed under 12 per 24 hours of 1000 lux, at 20° C.

In assay [1] the test system is mixed bouquet of 12 flowers. As to the kind of experiment: Flower life of a mixed bouquet of cut flowers in a vase with 1 litre of solution. Conditions: 1 litre solution, 20° C., 12 per 24 hours of 1000 lux, additions per litre of base solution (BZC 30 ppm, GOX 100 SRU). Format: in vivo, Rosa, Chrysanthemum santini, Gerbera, Antirrhinum, Solidago. As for the experimental part: A mixed bouquet of 12 flowers composed as follows: was placed in a vase with 1 litre of solution. The solution was either tap water or an aqueous base solution containing 10 g/1 of a composition containing 94.66% glucose, 5% citric acid, 0.34% conventional biocides. […] The vases with flowers were placed under 12 per 24 hours of 1000 lux, at 20° C.

The source of these data is patent US20180170776A1, “ANTI-MICROBIAL ADDITIVE FOR USE IN FLOWER VASE WATER” (Enhold B.V., priority 2008, published 2018).

For benzalkonium chloride [BZC], in the assay on bacterial contamination, the “CFU (bacterial contamination after 7 days)” value is on record as 900 1000 CFU/g stem and the “effect on bacterial contamination (in words)” value is “strong effect”. For the same substance, in assay [1], the “FL (flower life)” value was 12.0 days.
Consider glucose oxidase [GOX], for which, in the assay with bacterial contamination, the “CFU (bacterial contamination after 7 days)” value is on record as 4,400 1000 CFU/g stem and the “effect on bacterial contamination (in words)” value is given as “strong effect”. Also, in assay [1], the “FL (flower life)” value is 12.7 days.
